Test results reported in patent US11384079B2, “6-5 fused rings as C5a inhibitors” (CHEMOCENTRYX, INC., priority 2017, dated 2022).

What follows are molecules tested against T1, C5aR (Homo sapiens, UniProt P21730) (assay: chemotaxis assay (C5aR mediated migration)). Details: migration of U937 or neutrophil cells toward C5a (0.03 nM), 1.5 hours at 37° C., read-out: Mig IC50.
T1 construct: U937 cells are a monocytic cell line which express C5aR; host or cells: U937 cells (cAMP treated) or isolated neutrophils
T1 sequence (P21730 1-350): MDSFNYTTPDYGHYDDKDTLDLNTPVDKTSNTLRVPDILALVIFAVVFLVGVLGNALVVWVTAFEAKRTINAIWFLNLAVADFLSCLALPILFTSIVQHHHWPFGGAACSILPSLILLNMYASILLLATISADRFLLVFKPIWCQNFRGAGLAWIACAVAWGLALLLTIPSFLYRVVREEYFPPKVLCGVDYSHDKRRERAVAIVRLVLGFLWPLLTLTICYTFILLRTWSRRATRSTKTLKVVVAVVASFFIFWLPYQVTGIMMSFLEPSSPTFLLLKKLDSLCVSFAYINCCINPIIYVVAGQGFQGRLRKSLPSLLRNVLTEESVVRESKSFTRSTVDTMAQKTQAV
Type: cell-based
Procedure: U937 cells are a monocytic cell line which express C5aR, and are available from ATCC (VA). […] Cells were grown under 5% CO2/95% air, 100% humidity at 37° C. and subcultured twice weekly at 1:6 (cells were cultured at a density range of 1×10^5 to 2×10^6 cells/mL) and harvested at 1×10^6 cells/mL. Prior to assay, cells are treated overnight with 0.5 mM of cyclic AMP (Sigma, Ohio) and washed once prior to use. cAMP treated U937 cells can be used in C5aR ligand binding and functional assays.
Optionally, human or murine neutrophils can be used to assay for compound activity. Neutrophils may be isolated from fresh human blood using density separation and centrifugation. Briefly, whole blood is incubated with equal parts 3% dextran and allowed to separate for 45 minutes. After separation, the top layer is layered on top of 15 mls of Ficoll (15 mls of Ficoll for every 30 mls of blood suspension) and centrifuged for 30 minutes at 400×g with no brake. The pellet at the bottom of the tube is then isolated and resuspended into PharmLyse RBC Lysis Buffer (BD Biosciences, San Jose, Calif.) after which the sample is again centrifuged for 10 minutes at 400×g with brake. The remaining cell pellet is resuspended as appropriate and consists of isolated neutrophils.
Optionally, compounds may be further assayed for their ability to inhibit chemotaxis in cells. Chemotaxis assays are performed using 5 μm pore polycarbonate, polyvinylpyrrolidone-coated filters in 96-well chemotaxis chambers (Neuroprobe; Gaithersburg, Md.) using chemotaxis buffer (Hank's balanced salt solution (HBSS) and 1% FBS). C5aR ligands (i.e., C5a, R&D Systems; Minneapolis, Minn.) are use to evaluate compound mediated inhibition of C5aR mediated migration. Other chemokines (i.e., SDF-1α; R&D Systems; Minneapolis, Minn.) are used as specificity controls. […] The chambers are incubated 1.5 hours at 37° C., and the number of cells in the lower chamber quantified either by direct cell counts in five high powered fields per well or by the CyQuant assay (Molecular Probes), a fluorescent dye method that measures nucleic acid content and microscopic observation.

Row | IC50 | Compound
1 | < 5 nM | CCc1cccc(CC)c1-n1nc2c(c1-c1ccc(OC)c3[nH]ncc13)CN(c1ncc(C(F)(F)F)cn1)CC2 [Example 1.053]
2 | < 5 nM | CCc1cccc(CC)c1-n1nc2c(c1-c1cc(F)c(OC)c3[nH]ccc13)CN(c1ncc(OC(C)C)cn1)CC2 [Example 1.054]
3 | 5 to 50 nM | CCc1cccc(CC)c1-n1nc2c(c1-c1c(F)cc(Cl)c3[nH]ccc13)CN(c1ncc(CN3CCCC3)cn1)CC2 [Example 1.055]
4 | < 5 nM | CCc1cccc(CC)c1-n1nc2c(c1-c1cc(F)c(OC)c3[nH]ncc13)CN(c1ncc(C(F)(F)F)cn1)CC2 [Example 1.056]
5 | < 5 nM | CCc1cccc(CC)c1-n1nc2c(c1-c1ccc(Cl)c3[nH]ccc13)CN(c1cnccn1)CC2 [Example 1.057]
6 | < 5 nM | CCc1cccc(CC)c1-n1nc2c(c1-c1ccc(Cl)c3[nH]ccc13)CN(c1cnc(C(F)(F)F)cn1)CC2 [Example 1.058]
7 | < 5 nM | CCc1cccc(CC)c1-n1nc2c(c1-c1cc(F)c(OC)c3[nH]ccc13)CN(c1ncc(C(F)(F)F)cn1)CC2 [Example 1.059]
8 | < 5 nM | Cc1cccc(C)c1-n1nc2c(c1-c1ccc(Cl)c3[nH]ccc13)CN(c1ncc(C(F)(F)F)cn1)CC2 [Example 1.060]
9 | < 5 nM | CCc1cccc(CC)c1-n1nc2c(c1-c1cc(F)c(OC)c3[nH]ccc13)CN(c1ncc(C(F)(F)F)cc1F)CC2 [Example 1.061]
10 | < 5 nM | CCc1cccc(CC)c1-n1nc2c(c1-c1c(F)cc(Cl)c3[nH]ccc13)CN(c1ncc(C3CC3)cc1F)CC2 [Example 1.062]
11 | < 5 nM | CCc1cccc(CC)c1-n1nc2c(c1-c1ccc(Cl)c3[nH]ccc13)CN(c1ncc(OC(C)C)cn1)CC2 [Example 1.063]
12 | 50 to 500 nM | CCc1cccc(CC)c1-n1nc2c(c1-c1ccc(Cl)c3[nH]ccc13)CN(c1ncc(C(N)=O)cn1)CC2 [Example 1.064]
13 | < 5 nM | CCc1cccc(CC)c1-n1nc2c(c1-c1ccc(Cl)c3[nH]ncc13)CN(c1ncc(C3CC3)cn1)CC2 [Example 1.065]
14 | < 5 nM | CCc1cccc(CC)c1-n1nc2c(c1-c1c(F)cc(CO)c3[nH]ccc13)CN(c1ncc(C3CC3)cn1)CC2 [Example 1.066]
15 | 5 to 50 nM | CCc1cccc(CC)c1-n1nc2c(c1-c1ccc(Cl)c3[nH]ccc13)CN(c1cnc(C3CC3)cn1)CC2 [Example 1.067]
16 | 5 to 50 nM | CCc1cccc(CC)c1-n1nc2c(c1-c1cc(F)c(CO)c3[nH]ccc13)CN(c1ncc(C(C)(C)O)cn1)CC2 [Example 1.068]
17 | < 5 nM | CCc1cccc(CC)c1-n1nc2c(c1-c1ccc(Cl)c3[nH]cnc13)CN(c1ncc(C(F)(F)F)cn1)CC2 [Example 1.069]
18 | < 5 nM | CCc1cccc(CC)c1-n1nc2c(c1-c1c(F)cc(Cl)c3[nH]ccc13)CN(c1ncc(C3CC3)cn1)CC2 [Example 1.070]
19 | < 5 nM | CCc1cccc(CC)c1-n1nc2c(c1-c1ccc(Cl)c3[nH]ccc13)CN(c1ncc(C3CC3)cc1F)CC2 [Example 1.071]
20 | 5 to 50 nM | CCc1cccc(CC)c1-n1nc2c(c1-c1ccc(Cl)c3[nH]ccc13)CN(c1ncc(C)c(CO)n1)CC2 [Example 1.072]
21 | < 5 nM | CCc1cccc(CC)c1-n1nc2c(c1-c1ccc(Cl)c3[nH]ccc13)CN(c1ncc(C3CC3)cc1Cl)CC2 [Example 1.073]
22 | < 5 nM | CCc1cccc(CC)c1-n1nc2c(c1-c1ccc(Cl)c3[nH]ccc13)CN(c1ncc(C(C)(C)O)cn1)CC2 [Example 1.074]
23 | 50 to 500 nM | CCc1cccc(CC)c1-n1nc2c(c1-c1ccc(Cl)c3[nH]ccc13)CN(c1ncc(C)c(C(=O)O)n1)CC2 [Example 1.075]
24 | < 5 nM | CCc1cccc(CC)c1-n1nc2c(c1-c1c(F)cc(Cl)c3[nH]ccc13)CN(c1ncc(C(=O)N3CCCC3)cn1)CC2 [Example 1.076]
25 | < 5 nM | CCc1cccc(CC)c1-n1nc2c(c1-c1cc(F)c(CO)c3[nH]ccc13)CN(c1ncc(C(F)(F)F)cn1)CC2 [Example 1.077]
26 | < 5 nM | CCc1cccc(CC)c1-n1nc2c(c1-c1cc(F)c(CO)c3[nH]ccc13)CN(c1ncc(C(F)(F)F)cc1F)CC2 [Example 1.078]

Row | IC50 | Compound
27 | 50 to 500 nM | CCc1cccc(CC)c1-n1nc2c(c1-c1ccc(F)c3[nH]ncc13)CN(c1ncc(C(F)(F)F)cc1F)CC2 [Example 1.079]
28 | < 5 nM | CCc1cccc(CC)c1-n1nc2c(c1-c1cc(Cl)c(C)c3[nH]ccc13)CN(c1ncc(C(F)(F)F)cc1F)CC2 [Example 1.080]
29 | < 5 nM | CCc1cccc(CC)c1-n1nc2c(c1-c1cc(Cl)c(C)c3[nH]ccc13)CN(c1ncc(C(F)(F)F)cn1)CC2 [Example 1.081]
30 | 5 to 50 nM | CCc1cccc(CC)c1-n1nc2c(c1-c1ccc3[nH]ccc3c1)CN(c1ncc(C(F)(F)F)cc1F)CC2 [Example 1.082]
31 | 5 to 50 nM | CCc1cccc(CC)c1-n1nc2c(c1-c1cc(F)c3[nH]ccc3c1)CN(c1ncc(C(F)(F)F)cc1F)CC2 [Example 1.083]
32 | < 5 nM | CCc1cccc(CC)c1-n1nc2c(c1-c1cc(F)c(Cl)c3[nH]ccc13)CN(c1ncc(C(F)(F)F)cn1)CC2 [Example 1.084]
33 | < 5 nM | CCc1cccc(CC)c1-n1nc2c(c1-c1cc(F)c(Cl)c3[nH]ccc13)CN(c1ncc(C(F)(F)F)cc1F)CC2 [Example 1.085]
34 | < 5 nM | CCc1cccc(CC)c1-n1nc2c(c1-c1ccc(Cl)c3[nH]ccc13)CN(c1ccc(OC(F)(F)F)cn1)CC2 [Example 1.086]
35 | 5 to 50 nM | CCc1cccc(CC)c1-n1nc2c(c1-c1ccc(OC)c3[nH]ccc13)CN(c1ncc(C(F)(F)F)cn1)CC2 [Example 1.087]
36 | < 5 nM | CCc1cccc(CC)c1-n1nc2c(c1-c1ccc(Cl)c3[nH]ccc13)CN(c1ncc(C(F)(F)F)cc1C)CC2 [Example 1.088]
37 | 5 to 50 nM | CCc1cccc(CC)c1-n1nc2c(c1-c1ccc(OC)c3[nH]ccc13)CN(c1ncc(C(F)(F)F)cc1F)CC2 [Example 1.089]
38 | 5 to 50 nM | Cc1cccc(C)c1-n1nc2c(c1-c1c(F)cc(CO)c3[nH]ccc13)CN(c1ncc(C(F)(F)F)cn1)CC2 [Example 1.090]
39 | 5 to 50 nM | Cc1cccc(C)c1-n1nc2c(c1-c1c(F)cc(C)c3[nH]ccc13)CN(c1ncc(Cl)cc1F)CC2 [Example 1.091]
40 | < 5 nM | Cc1cccc(C)c1-n1nc2c(c1-c1c(F)cc(C)c3[nH]ccc13)CN(c1ncc(C(F)(F)F)cn1)CC2 [Example 1.092]
41 | < 5 nM | CCc1cccc(CC)c1-n1nc2c(c1-c1cc(F)c(C)c3[nH]ccc13)CN(c1ncc(C(F)(F)F)cn1)CC2 [Example 1.093]
42 | < 5 nM | CCc1cccc(CC)c1-n1nc2c(c1-c1c(F)cc(CO)c3[nH]ccc13)CN(c1ncc(C(C)C)cc1F)CC2 [Example 1.094]
43 | < 5 nM | Cc1cccc(C)c1-n1nc2c(c1-c1c(F)cc(C)c3[nH]ccc13)CN(c1ncc(C(F)(F)F)cc1F)CC2 [Example 1.095]
44 | < 5 nM | Cc1cccc(C)c1-n1nc2c(c1-c1c(F)cc(C)c3[nH]ccc13)CN(c1ncc(C(C)C)cn1)CC2 [Example 1.096]
45 | 5 to 50 nM | CCc1cccc(CC)c1-n1nc2c(c1-c1ccc(Cl)c3[nH]ccc13)CN(c1ncc(CO)cn1)CC2 [Example 1.097]
46 | < 5 nM | CCc1cccc(CC)c1-n1nc2c(c1-c1c(F)cc(CO)c3[nH]ccc13)CN(c1ncc(C(C)C)cn1)CC2 [Example 1.098]
47 | < 5 nM | CCc1cccc(CC)c1-n1nc2c(c1-c1ccc(Cl)c3[nH]ccc13)CN(c1ncc(Cl)cc1F)CC2 [Example 1.099]
48 | < 5 nM | CCc1cccc(CC)c1-n1nc2c(c1-c1c(F)cc(CO)c3[nH]ccc13)CN(c1ccc(C(F)(F)F)cn1)CC2 [Example 1.100]
49 | < 5 nM | CCc1cccc(CC)c1-n1nc2c(c1-c1c(F)cc(CO)c3[nH]ccc13)CN(c1ncc(C(F)(F)F)cn1)CC2 [Example 1.101]
50 | 5 to 50 nM | Cc1cccc(C)c1-n1nc2c(c1-c1cc(F)c(C)c3[nH]ccc13)CN(c1ncc(C(F)(F)F)cn1)CC2 [Example 1.102]
51 | 5 to 50 nM | Cc1cccc(C)c1-n1nc2c(c1-c1cc(F)c(C)c3[nH]ccc13)CN(c1ncc(C(F)(F)F)cc1F)CC2 [Example 1.103]
52 | < 5 nM | CCc1cccc(CC)c1-n1nc2c(c1-c1c(F)cc(CO)c3[nH]ccc13)CN(c1ncc(C(F)(F)F)cc1F)CC2 [Example 1.104]
